B1: HD5ox: oxidized form of HD5 with three disulfide bonds (peptide, UniProt Q01523 20-94, looked up)
Defensin alpha 5: ESLQERADEATTQKQSGEDNQDLAISFAGNGLSALRTSGSQARATCYCRTGRCATRESLSGVCEISGRLYRLCCR
modifications: Defensin-5 oxidized, three disulfides
B2: HD5: 32-residue cysteine-rich host-defense peptide; the redox couple HD5ox/HD5red (peptide, UniProt Q01523 20-94, looked up)
Defensin alpha 5: B1 Defensin alpha 5
modifications: Defensin-5

How the values were obtained:
[1] = known Zn(II) affinity; ref Supporting Information; cited from earlier work
trypsin = conditions: oxidized, triple-stranded β-sheet fold; cited from earlier work
[2] = Midpoint potential determination in DTT redox buffers; conditions: pH 7.0, 75 mM HEPES, DTTred/DTTox redox buffers −230 to −290 mV, 25 µM HD5red or HD5ox, anaerobic, 20 h, rt (ca. 22 °C), HPLC peak areas, global fit

Molecule	Kd for Zn(II) of the sensor (range in words) [1]	further results
O=C(O)c1ccccc1NN=C(N=Nc1cc(S(=O)(=O)O)ccc1O)c1ccccc1 [Zincon]	micromolar	
FluoZin-1 [FZ1]	micromolar	
Zinpyr-4 [ZP4]	mid-picomolar	
B1		stability to trypsin (trypsin): resistant to degradation
B2		midpoint potential [2]: −257 mV
